From patent US9290503B2, “Tricyclic compound derivatives useful in the treatment of neoplastic diseases, inflammatory disorders and immunomodulatory disorders” (CHEMBRIDGE CORPORATION, priority 2006, dated 2016)

What was measured:
Format in all cases: cell-based
KMS18 = assay: Cell proliferation assay, MTT, KMS18; details: Homo sapiens, KMS18, 72 h, standard 3-day proliferation assay
Description: (§1) IGF1R and other tyrosine kinase inhibitors can inhibit the proliferation of certain cancer cell lines indicating their possible therapeutic utility for treating the corresponding cancer types. Cancer cell lines of interest and control normal lines, including CHO, HEK293, BA/F3, COLO205, PC3, DU145, MCF7, Panc1, ACHN, Hep G2, H460, K562, TT, U87-MG, CAOV-3, SK-MEL5, Karpas 299 and human multiple myeloma cell lines H929, MM1s, MM1r, UTMC2, CPM2, KMS11, My5, KMS12PE, My7, JJN3, KMS18, U266, SKMM2, RPMI-8226 are plated in white, clear-bottomed 384-well cell culture plates at 2500-5000 cells per well and supplied with dilutions of tested compounds After a desired period of time (typically 3 days), the number of viable cells is quantitated by using Cell Titer-Glo Luminescent Cell Viability Assay (Promega), a cell proliferation assay system based on detection of total amount of ATP present as a measure of cell metabolic activity. The plated cells are mixed with the Cell Titer-Glo developing reagent and counted in a luminescence multiwell plate reader according to the standard manufacturer's protocol to generate IC50 curves for cell proliferation inhibition. […] Alternatively, viable cells are quantitated by using the conventional colorimetric MTT assay. […] The formazan is then solubilized, and the concentration determined by optical density at 570 nm. […]

My5 = assay: Cell proliferation assay, MTT, My5; details: Homo sapiens, 72 h, standard 3-day proliferation assay
Description: as §1

RPMI-8226 = assay: Cell proliferation assay, MTT, RPMI-8226; details: Homo sapiens, RPMI-8226, 72 h, standard 3-day proliferation assay
Description: as §1

U266 = assay: Cell proliferation assay, MTT, U266; details: Homo sapiens, U-266, 72 h, standard 3-day proliferation assay
Description: as §1

[1] = test system: CHO (chinese hamster ovary); assay: Cell proliferation assay, MTT, CHO; details: Cricetulus griseus, 72 h, standard 3-day proliferation assay
Description: as §1

UTMC2 = assay: Cell proliferation assay, MTT, UTMC2; details: Homo sapiens, UTMC2, 72 h, standard 3-day proliferation assay
Description: as §1

KMS12PE = assay: Cell proliferation assay, MTT, KMS12PE; details: Homo sapiens, KMS-12-PE, 72 h, standard 3-day proliferation assay
Description: as §1

[2] = test system: HEK293 (human normal embryonic kidney); assay: Cell proliferation assay, MTT, HEK293; details: HEK293, 72 h, standard 3-day proliferation assay, read-out: HEK IC50
Description: as §1

H929 = assay: Cell proliferation assay, MTT, H929; details: Homo sapiens, NCI-H929, 72 h, standard 3-day proliferation assay
Description: as §1

My7 = assay: Cell proliferation assay, MTT, My7; details: Homo sapiens, 72 h, standard 3-day proliferation assay
Description: as §1

CPM2 = assay: Cell proliferation assay, MTT, CPM2; details: Homo sapiens, 72 h, standard 3-day proliferation assay
Description: as §1

JJN3 = assay: Cell proliferation assay, MTT, JJN3; details: Homo sapiens, JJN-3, 72 h, standard 3-day proliferation assay
Description: as §1

MM1s = assay: Cell proliferation assay, MTT, MM1s; details: Homo sapiens, MM1.S, 72 h, standard 3-day proliferation assay
Description: as §1

MM1r = assay: Cell proliferation assay, MTT, MM1r; details: Homo sapiens, MM.1R, 72 h, standard 3-day proliferation assay
Description: as §1

KMS11 = assay: Cell proliferation assay, MTT, KMS11; details: Homo sapiens, KMS-11, 72 h, standard 3-day proliferation assay
Description: as §1

SKMM2 = assay: Cell proliferation assay, MTT, SKMM2; details: Homo sapiens, SK-MM-2, 72 h, standard 3-day proliferation assay
Description: as §1

IGF1 receptor = biological target: T1, IGF1 receptor (Homo sapiens, UniProt P08069); assay: ELISA-based assay of IGF1 receptor autophosphorylation inhibition in cells; details: MCF7 cells, read-out: MCF7 IGF1R Phosphorylation IC50
T1 construct: MCF7 human breast cancer cells expressing IGF1 receptor; endogenous in cells; host or cells: MCF7 human breast cancer cells
Procedure: In another embodiment, compounds that interact with the IGF1R kinase domain are tested in a cell-based assay system. In accordance with this embodiment, cells expressing a full-length IGF1 receptor or a fragment thereof containing the IGF1R kinase domain, are contacted with a candidate or a control compound and the ability of the compound to block tyrosine kinase activity of IGF1R within a cell is determined. This assay may be used to screen a single compound or a large library of candidate compounds. […] The ability of the candidate compound to inhibit IGF1R kinase activity can be determined by methods known to those skilled in the art. For example, the inhibition can be determined by ELISA-type assay or Western blot analysis with cell lysates or immunoprecipitated IGF1R receptor using various anti-IGF1R and anti-phosphotyrosine antibodies.
In general, cells expressing IGF1R are treated with modulators (i.e., inhibitors or activators) of IGF1R kinase activity and cell lysates are produced from these treated cells. IGF1Rs are isolated from the lysate by immunoprecipitation and analyzed for phosphotyrosine content. Alternatively, or in addition, cellular protein substrates phosphorylated by IGFR may be immunoprecipitated from the lysates and their degree of tyrosine phosphorylation determined. […]

T1 sequence (P08069 31-1367): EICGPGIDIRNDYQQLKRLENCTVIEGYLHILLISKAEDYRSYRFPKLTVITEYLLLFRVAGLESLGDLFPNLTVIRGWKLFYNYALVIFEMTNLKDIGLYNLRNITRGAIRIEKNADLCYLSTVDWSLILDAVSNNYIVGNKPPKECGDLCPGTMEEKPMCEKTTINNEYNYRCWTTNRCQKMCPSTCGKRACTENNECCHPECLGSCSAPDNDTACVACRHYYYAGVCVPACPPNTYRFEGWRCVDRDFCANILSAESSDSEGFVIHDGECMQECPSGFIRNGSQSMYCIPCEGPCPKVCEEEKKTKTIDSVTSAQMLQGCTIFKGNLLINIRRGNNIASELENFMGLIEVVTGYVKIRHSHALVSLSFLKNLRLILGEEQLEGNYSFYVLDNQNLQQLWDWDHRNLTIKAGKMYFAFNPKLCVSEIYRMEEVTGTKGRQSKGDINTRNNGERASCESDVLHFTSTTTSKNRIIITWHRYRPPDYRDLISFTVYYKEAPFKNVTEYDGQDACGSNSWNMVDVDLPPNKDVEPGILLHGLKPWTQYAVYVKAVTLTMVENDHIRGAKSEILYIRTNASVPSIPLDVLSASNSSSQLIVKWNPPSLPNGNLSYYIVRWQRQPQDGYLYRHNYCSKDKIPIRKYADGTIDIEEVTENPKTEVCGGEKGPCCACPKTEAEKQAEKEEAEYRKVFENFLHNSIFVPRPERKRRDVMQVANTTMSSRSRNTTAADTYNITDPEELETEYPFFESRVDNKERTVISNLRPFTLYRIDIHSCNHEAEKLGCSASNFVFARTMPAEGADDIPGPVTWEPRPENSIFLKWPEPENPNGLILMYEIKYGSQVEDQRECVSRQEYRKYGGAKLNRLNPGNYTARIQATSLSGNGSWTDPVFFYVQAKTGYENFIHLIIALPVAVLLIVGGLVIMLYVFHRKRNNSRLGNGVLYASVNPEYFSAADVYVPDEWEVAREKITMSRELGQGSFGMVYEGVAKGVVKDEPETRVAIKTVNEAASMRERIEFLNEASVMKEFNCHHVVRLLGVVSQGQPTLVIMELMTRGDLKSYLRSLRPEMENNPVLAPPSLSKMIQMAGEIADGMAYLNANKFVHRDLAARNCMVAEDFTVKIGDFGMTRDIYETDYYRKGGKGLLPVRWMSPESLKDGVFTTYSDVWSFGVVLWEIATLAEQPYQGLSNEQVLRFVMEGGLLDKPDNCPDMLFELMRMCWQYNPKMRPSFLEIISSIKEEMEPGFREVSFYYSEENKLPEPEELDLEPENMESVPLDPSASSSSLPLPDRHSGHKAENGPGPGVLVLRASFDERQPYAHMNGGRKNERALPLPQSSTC

IC50 (RPMI-8226) [µM] | IC50 (U266) [µM] | IC50 (H929) [µM] | IC50 (MM1s) [µM] | IC50 (MM1r) [µM] | IC50 (SKMM2) [µM] | IC50 (IGF1 receptor) [µM] | Structure (SMILES) | IC50 (KMS18) [µM] | IC50 (My5) [µM] | IC50 [1] [µM] | IC50 (UTMC2) [µM] | IC50 (KMS12PE) [µM] | IC50 [2] [µM] | IC50 (My7) [µM] | IC50 (CPM2) [µM] | IC50 (JJN3) [µM] | IC50 (KMS11) [µM]
5 to 20 | 1 to 5 | 0.5 to 1 | 0.5 to 1 | 1 to 5 | 1 to 5 |  | Cc1ccc(OCC(=O)CNc2cc[nH]c(=O)c2C2Nc3cc4c(cc3N2)C(=O)N(C2CCN(CCS(C)(=O)=O)CC2)C4)c(C)c1 (centres unmarked) | 5 to 20 | 5 to 20 | ≥ 20 | < 0.5 | 1 to 5 | ≥ 20 | 1 to 5 | 1 to 5 | 1 to 5 | 1 to 5
 |  |  |  |  |  | > 15 | CN1CCC(N2C(=O)c3cc4nc(-c5c(NCC(O)c6ccncc6)cc[nH]c5=O)[nH]c4cc3C2=O)CC1 (centres unmarked) [compound 7] |  |  |  |  |  |  |  |  |  | 
